# Literature values in publication PMC6630532 (ACS Infectious Diseases, 2019).
# System: bacteria
# Details: read-out: IC50 (in vitro antimicrobial effect of killing 50% of the bacteria)
substance,measurement,value
H-TGRAKRRMQYNRR-NH2 [UBI29–41],IC50,20 µM
